# Experiments:
# [1] = Example 7: ascending dose study in obese subjects, pharmacokinetics
# Method: (§1) This example involved a clinical study of the compound of formula (I), which was a randomized, double-blind, placebo-controlled, ascending dose study to evaluate the safety, tolerability and pharmacokinetics/pharmacodynamics of the compound of formula (I) tablets administered twice daily for two weeks in obese subjects.
# (§2) The subjects were separated into four arms of nine (one with ten) test subjects (which were administered the compound of formula (I)) and three placebo subjects.
# [2] = Example 3: repeated dose study of tablets 1 or 2 mg BID, safety
# Method: The subjects were divided into two dosing groups and within each dosing group, the subjects were divided as follows: 6 subjects received the compound of formula (I) and 3 subjects received placebo.
# For the determination of plasma concentrations of the compound of formula (I) and metabolite M1 in this study, the bioanalytical method achieved a sensitivity (LLOQ) of 0.3 ng/mL. Adverse event (AE) information was collected from each subject.
# [3] = Example 4: pharmacokinetics; format: in vivo, human
# Method: One hundred five Japanese patients with hyperlipidemia (LDL-C between 140 and 220 mg/dL; TG≦400 mg/dL) participated in the study. […] For the efficacy analysis, 95 subjects were observed (0.5 mg BID: 25 subjects, 1 mg BID: 24 subjects, 2 mg BID: 22 subjects, 4 mg BID: 24 subjects).
# [4] = Example 2: plasma and urine pharmacokinetics; format: in vivo, human
# Method: Each tablet contained 5 mg (BID), 10 mg (QD), 20 mg (QD), or 30 mg (QD).
# [5] = Example 9: safety and tolerability; format: in vivo, human
# Method: The study enrolled 16 obese male subjects (18-65 years of age (inclusive), with a body mass index (BMI) >30.0 kg/m^2 and <40.0 kg/m^2) who participated in two treatment periods. During Period 1, 8 subjects were randomized to receive 3.5 mg of the compound of formula (I), and 8 subjects were randomized to receive placebo. The compound of formula (I) or placebo was administered twice daily (BID), 30 minutes after the start of breakfast and dinner, for 10 days. All subjects were discharged from the clinic at the end of Period 1 for a 9±2 day discharge period. Subjects then returned for treatment during Period 2, in which (i) the group previously receiving the compound of formula (I) now received placebo, and (ii) the group previously receiving placebo now received the compound of formula (I), in accordance with the protocol described above.
# [6] = Example 7: weight loss and tolerability in obese subjects; conditions: for mean changes from baseline in weight: 2 weeks
# Method: as §1, §2
# [7] = Example 5: fixed-dose or escalating doses, safety; format: in vivo, human
# Method: Fifty-two Japanese patients with hyperlipidemia (LDL-C between 140 and 220 mg/dL; TG≦400 mg/dL) participated in the study. […] One group received a fixed dose of 2 mg per tablet through the entire study. The other group received escalating doses of 0.5 mg (weeks 1-4), 1 mg (weeks 5-8), and 2 mg (weeks 9-12). For the efficacy analysis, 50 subjects were observed (25 in the fixed-dose group and 25 in the dose escalation group).
# The objective of this study was preliminary evaluation of the efficacy (based on serum lipid levels), safety, and pharmacokinetics of the compound of formula (I) administered orally twice daily after breakfast and supper for 12 weeks as a fixed dose (4 mg/day) or escalating dose (1 mg/day, 2 mg/day and 4 mg/day) regimen in patients with hyperlipidemia.
# [8] = 10, 20, 30 mg QD, initial dose Day 1
smiles,measurement,setting,value
"CCOC(=O)C(COC(=O)Cc1ccc(NC(=O)c2ccccc2-c2ccc(C(F)(F)F)cc2)c(C(=O)N(C)C)c1)(C(=O)OCC)c1ccccc1 [compound of formula (I), diethyl 2-((2-(3-(dimethylcarbamoyl)-4-(4′-(trifiuoromethyl)biphenyl-2-ylcarboxamido)phenyl)acetoxy)methyl)-2-phenyl malonate]",plasma concentrations of the compound of formula (I),"[1]; 1 mg, Day 14",not quantifiable
same,time up to which concentrations were quantifiable,"[1]; 2.5 mg and 3.5 mg groups, Day 14",up to 5 hr
same,subjects with quantifiable concentrations,"[1]; 2.5 mg, Day 14",2 of 8 subjects
same,subjects with quantifiable concentrations,"[1]; 3.5 mg, Day 14",7 of 8 subjects
same,subjects with quantifiable concentrations,"[1]; 5 mg, Day 14",2 of 3 subjects
same,time for which concentrations were quantifiable,"[1]; 5 mg, Day 14",at least 6 hr
same,plasma concentrations of the compound of formula (I),"[1]; 1 to 5 mg, Day 1",generally below the limit of quantization
same,Cmax and AUC0-τ dose proportionality,[1]; 2.5 to 5 mg,approximately dose proportional
same,systemic exposure,[1]; BID for 14 days,negligible
same,parent/metabolite ratio for AUC0-τ,[1]; all dose levels,less than 0.01
same,parent/metabolite ratio for Cmax,[1]; all dose levels,less than 0.03
same,oral clearance,[1]; quantifiable dose groups,high oral clearance
same,subjects with adverse events (incidence),[2]; 1 mg BID,66.7%
same,subjects with adverse events (incidence),[2]; 2 mg BID,50.0%
same,"fat-soluble vitamins (vitamin A, 25-OH vitamin D, and vitamin E)",[2]; 1 and 2 mg BID,no decrease
same,severity of all adverse events,[2]; 1 and 2 mg BID,mild
same,death or serious adverse events,"[2]; 1 or 2 mg BID tablets, 14 days",No death or other serious adverse events occurred
same,subjects with adverse events (incidence),"[2]; active group, 12 subjects",58.3%
same,incidence of diarrhea,[2]; overall compound group,25.0%
same,incidence of gastrointestinal disorders (SOC),[2]; overall compound group,41.7%
same,incidence of investigations (SOC),[2]; overall compound group,33.3%
same,incidence of loose stools,[2]; overall compound group,25.0%
same,tolerable dose,"[2]; twice daily for 14 days, tablets",up to 2 mg
same,plasma compound of formula (I) concentrations,"[3]; 0.5 and 1 mg BID, not quantifiable",< 0.3 ng/mL
same,plasma compound of formula (I) concentrations,[3]; 2 and 4 mg BID,"not quantifiable, except in a few sporadic cases"
same,subjects with Cmin detected sporadically,[4]; 5 mg BID,4 of 6 subjects
same,Cmin of the compound of formula (I),"[4]; 10 mg QD, Day 2 to 14",below the limit of quantization
same,subjects with Cmin detected sporadically,[4]; 20 mg QD,1 of 6 subjects
same,subjects with Cmin detected sporadically,[4]; 30 mg QD,4 of 6 subjects
same,AUC0-24hr dose proportionality,[4]; [8],greater than dose-proportional
same,Cmax dose proportionality,[4]; [8],greater than dose-proportional
same,plasma compound of formula (I),"[4]; after initial dose on Day 1, all groups",quantifiable
same,compound in urine,[4]; all groups,not quantifiable in urine
same,Cmin of the compound of formula (I),[4]; all subjects,less than 3 ng/mL
same,Cmax and AUC0-24hr dose proportionality,[4]; final dose on Day 14,dose-proportional
same,deaths or serious adverse events,"[5]; 3.5 mg BID, 10 days",no deaths or serious adverse events
same,subjects with at least one treatment-emergent adverse event,"[5]; 3.5 mg BID, 10 days",53.3%
same,safety and tolerability,"[5]; 3.5 mg BID, 10 days, fed conditions",safe and well-tolerated
same,"hematology, biochemistry, urinalysis, vital sign (including weight), ECG changes from baseline",[5]; in vivo,No clinically meaningful mean changes
same,mean changes from baseline in weight,[6]; 1 mg BID,-0.31 kg
same,average weight loss,"[6]; 1 mg BID, 14 days",0.31 kg
same,mean changes from baseline in weight,[6]; 2.5 mg BID,-0.68 kg
same,average weight loss,"[6]; 2.5 mg BID, 14 days",0.68 kg
same,mean changes from baseline in weight,[6]; 3.5 mg BID,-1.39 kg
same,average weight loss,"[6]; 3.5 mg BID, 14 days",1.39 kg
same,average weight loss,"[6]; 5 mg BID, 14 days",2.07 kg
same,average weight loss,"[6]; 5 mg BID, Day 10 (n=9)",2.32 kg
same,subjects who withdrew due to GI-related adverse events prior to Day 14,[6]; 5 mg dose group,six
same,tolerability at 5 mg BID,[6]; obese subjects,not at 5 mg BID
same,well tolerated doses,[6]; obese subjects,up to 3.5 mg BID
same,events of gastrointestinal disorders,[7]; dose escalation group,14
same,events of infections and infestations,[7]; dose escalation group,6
same,events of laboratory test,[7]; dose escalation group,11
same,incidence of gastrointestinal disorders (SOC),[7]; dose escalation group,34.6%
same,incidence of infections and infestations (SOC),[7]; dose escalation group,19.2%
same,incidence of laboratory test (SOC),[7]; dose escalation group,23.1%
same,incidence of moderate adverse events,[7]; dose escalation group,15.4%
same,number of adverse events,[7]; dose escalation group,37
same,subjects with adverse events (incidence),[7]; dose escalation group,65.4%
same,subjects with moderate diarrhea,[7]; dose escalation group,three
same,incidence of gastrointestinal disorders,"[7]; dose escalation group, Weeks 9 to 12 (4 mg/day)",20.0%
same,events of gastrointestinal disorders,[7]; fixed-dose group,25
same,events of infections and infestations,[7]; fixed-dose group,four
same,events of laboratory test,[7]; fixed-dose group,nine
same,incidence of gastrointestinal disorders (SOC),[7]; fixed-dose group,50.0%
same,incidence of infections and infestations (SOC),[7]; fixed-dose group,15.4%
same,incidence of laboratory test (SOC),[7]; fixed-dose group,23.1%
same,incidence of moderate adverse events,[7]; fixed-dose group,15.4%
same,number of adverse events,[7]; fixed-dose group,45
same,subjects with adverse events (incidence),[7]; fixed-dose group,65.4%
same,subjects with moderate diarrhea,[7]; fixed-dose group,four
same,incidence of gastrointestinal disorders,"[7]; fixed-dose group, Weeks 1 to 4 (4 mg/day)",46.2%
same,"systolic and diastolic blood pressure, pulse rate, body temperature, body weight, ultrasonography",[7]; in vivo,No clinically relevant abnormal changes
same,death or serious adverse events,"[7]; tablets BID, 12 weeks",No death or other serious adverse events occurred

# — patent publication US20120302636A1, “METHOD OF TREATING A DISORDER ASSOCIATED WITH MTP” (priority 2009, published 2012)
